Data on three compounds can be found in US20170266089A1, “USE OF LIPOPHILIC SALICYLIC ACID DERIVATIVES” (L'OREAL, priority 2014, published 2017).

Assay [1] concerns Transglutaminase 1 (TGM1) transcripts. As to the kind of experiment: Expression of TGM1 transcripts in keratinocytes (RT-qPCR). The assay is classed as cell-based. The settings on record: human epidermic keratinocytes, 24 hours, compound at 15 μm; for TGM1 transcript expression, fold change (fc) compared to control: normalized to RPL13A and GAPDH, N=3. The method, then:
(§1) The influence of the compounds (A′) and (F), in particular obtained according to the process indicated above, on the renewal of the epidermis and on the barrier effect of the skin was evaluated in vitro by measuring the expression of TGM1 and TGM3 transcripts in keratinocytes.
(§2) Human epidermic keratinocytes were incubated for 24 hours in the presence or not (control) of compound (A′) or (F). At the end of the incubation, total RNAs were extracted and quantified. The expression of TGM1 and TGM3 transcripts was then measured using a two-step RT-qPCR method with a LightCycler® device according to the technique of incorporation of SYBR®Green (Qiagen). The expression of these transcripts was normalized with the expression of two housekeeping genes, RPL13A and GAPDH. The experiments were reproduced 3 times (N=3).
(§3) The results are given in Table (VI) below, fold change (fc) compared to control.
Background: In qPCR the cycle at which signal appears reflects the starting amount.

Assay [2] relates to Transglutaminase 3 (TGM3) transcripts. As to the kind of experiment: Expression of TGM3 transcripts in keratinocytes (RT-qPCR). Type of assay: cell-based. The settings on record: human epidermic keratinocytes, 24 hours, compound at 15 μm; for TGM3 transcript expression, fold change (fc) compared to control: normalized to RPL13A and GAPDH, N=3. The method, then:
as §1, §2, §3

In a further assay the test system is laminin-5. As to the kind of experiment: Ex vivo immunolabelling of laminin-5 in skin explants. Details: species or system human. To be noted: topical 2 mg per explant, compound (F) 5% in water, LHA 5% in ethanol, symbols proportional. As to the method:
(§4) The anti-ageing effect of the compound (F), in particular obtained according to the process indicated above, at 5% in water, was evaluated ex vivo by immunolabelling of the proteins collagen III, membrane transglutaminase (MTG), filaggrin and laminin-5, in comparison with LHA (lipohydroxy acid, 2-hydroxy-5-octanoylbenzoic acid) at 5% in ethanol.
(§5) 111 explants with a diameter of approximately 10 mm were prepared from abdominal plastic surgery on a person. These explants were kept alive.
(§6) On day […], the explants were placed on a grid in 2 ml of culture medium. […]
(§7) At D0, D6 and D11, the explants were sampled from the culture medium and cut in two. […] The labellings were evaluated by a microscopic examination. […]
(§8) The microscopic observations were carried out in optical microscopy and fluorescence microscopy, using a Leica microscope of Orthoplan or DMLB type. […]
Immunolabelling of Laminin-5 The labelling of laminin-5 was carried out on frozen sections with a monoclonal antibody, clone P3E4 (Santa Cruz sc-13587), at 1/300th, for 30 minutes at ambient temperature with a biotin/streptavidin amplifying system, visualized in FITC (Caltag sa1001). […] The labelling was evaluated by a microscopic examination. […]
The results obtained with the compound (F) and LHA are assessed, at equivalent date, by comparison with the results obtained in the absence of treatment (control test). […]

Assay [3] relates to membrane transglutaminase (MTG). Kind of assay: Ex vivo immunolabelling of membrane transglutaminase (MTG) in skin explants. To be noted: topical 2 mg per explant, compound (F) 5% in water, LHA 5% in ethanol, symbols proportional. Details: species or system human. As to the method:
as §4, §5, §6, §7, §8
Membrane transglutaminase was labelled on frozen sections with a monoclonal antibody, clone B.C1 (Harbor Bio Product ref. 5003), at 1/100th, for 2 h at ambient temperature with a Vectastain RTU Universal, Vector, avidin/biotin amplifying system and visualized in FITC. […] The labelling was evaluated by a microscopic examination. […]
The results obtained with the compound (F) and […] are assessed, at equivalent date, by comparison with the results obtained in the absence of treatment (control test). […]

As for `CCCCCCCCCCCCCCCc1cccc(O)c1C(=O)O` [Compound (A′), 6-peritadecylsalicylic acid], in assay [1], the “Stimulation of the expression of TGM1 transcripts (class in words)” value is listed as “strong stimulation” and the “TGM1 transcript expression, fold change (fc) compared to control” value worked out at 6.0 fc. Further, in assay [2], the “Stimulation of the expression of TGM3 transcripts (class in words)” value is “strong stimulation” and the “TGM3 transcript expression, fold change (fc) compared to control” value stood at 20 fc.

In the case of `CCCCCCCCCCCCCCCc1cccc(O)c1C(=O)O` [Compound (F)], the “Laminin-5 expression level, difference in comparison with the control at D11” value with laminin-5 is reported as “No variation”. Further, the “MTG expression level, difference in comparison with the control at D6” value in assay [3] is “No variation”. Moreover, in assay [1], the “Stimulation of the expression of TGM1 transcripts (class in words)” value was “average stimulation” and the “TGM1 transcript expression, fold change (fc) compared to control” value is reported as 1.7 fc. In assay [2], the “Stimulation of the expression of TGM3 transcripts (class in words)” value is given as “good stimulation” and the “TGM3 transcript expression, fold change (fc) compared to control” value turned out to be 3.0 fc.

Turning to `CCCCCCCC(=O)c1ccc(O)c(C(=O)O)c1` [LHA, 2-hydroxy-5-octanoylbenzoic acid, reference compound], in the assay with laminin-5, the “Laminin-5 expression level, difference in comparison with the control at D11” value is “No variation”.
